Measured values as given in patent US12037324B2, “Biarylmethyl heterocycles” (Université de Montréal, priority 2016, dated 2024).
Like-named read-outs stand apart in the source and are kept apart here.

Experiments:
hAT1R [1] = target: T1, hAT1R (Homo sapiens, UniProt P30556); assay: cell-based; details: agonist mode; for EC50: read-out: BRET P63 EC50
T1 sequence (P30556 1-359): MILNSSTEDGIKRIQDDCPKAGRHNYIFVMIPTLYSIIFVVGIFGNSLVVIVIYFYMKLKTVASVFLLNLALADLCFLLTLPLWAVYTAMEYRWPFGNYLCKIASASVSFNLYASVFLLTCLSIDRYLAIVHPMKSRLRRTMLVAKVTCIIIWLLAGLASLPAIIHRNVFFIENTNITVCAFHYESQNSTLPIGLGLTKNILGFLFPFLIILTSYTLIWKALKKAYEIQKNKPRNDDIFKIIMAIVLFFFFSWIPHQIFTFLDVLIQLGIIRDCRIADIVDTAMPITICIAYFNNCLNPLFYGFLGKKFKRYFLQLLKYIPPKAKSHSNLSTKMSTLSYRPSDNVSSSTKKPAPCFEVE

AGTR1 [2] = target: T2, AGTR1 (Homo sapiens, UniProt P30556); assay: DiscoveRx IP1 accumulation assay (HTRF), agonist mode, Pathunter CHO-K1 AGTR1 β-arrestin cell line; type: cell-based; details: for EC50: read-out: IP-1 EC50
T2 construct: host or cells: Pathunter CHO-K1 AGTR1 β-arrestin cell line (CHO-K1)
T2 sequence (P30556 1-359): T1 sequence (P30556 1-359)
In short: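 Agonist mode in CHO-K1 AGTR1 β-arrestin cells plated 14-16 h before; compounds at varying concentrations for 90 min at 37° C, IP1 accumulation read by HTRF (D2-conjugate and anti-IP1 cryptate, 20 min room temperature). EC50 from 4-parameter logistic fit; activity given as percentage of maximal AII effect.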

hAT1R [3] = target: T1, hAT1R; assay: cell-based
AGTR1 [4] = target: T2, AGTR1; assay: DiscoveRx β-arrestin2 recruitment assay (enzyme complementation, Pathunter CHO-K1 AGTR1 β-arrestin cell line); type: cell-based; details: DiscoveRx β-arrestin2 recruitment; for DiscoveRx β-arrestin2 Ymax (%): maximal response
In short: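 Chemiluminescent enzyme-complementation read-out of β-arrestin2 recruitment to AGTR1 in engineered CHO-K1 cells after 90 min compound exposure at 37° C. Values are 4-parameter logistic EC50s in agonist mode, IC50s in antagonist mode, with efficacy relative to the maximal All response.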

[5] = section of the 42nd table ending at r951, example numbering restarts after the DiscoveRx section, read-out: β-arrestin2 EC50

SMILES | BRET P63 Ymax (hAT1R [1]) [%] | EC50 (hAT1R [1]) [nM] | IP-1 Ymax (%) (AGTR1 [2]) | EC50 (AGTR1 [2]) [nM] | BRET β-Arrestin2 Low AT1R Expression Ymax (%) (hAT1R [3]; Low AT1R Expression) | EC50 (hAT1R [3]; Low AT1R Expression, read-out: BRET β-Arrestin2 Low AT1R Expression EC50) [nM] | EC50 (AGTR1 [4]) [nM] | DiscoveRx β-arrestin2 Ymax (%) (AGTR1 [4]) | EC50 (hAT1R [3]; [5]) [nM]
Cc1ccnc(-c2ccc(-c3nn[nH]n3)c(-c3ccc(CN4C(=O)C5(CCCC5)N=C4C4CC4)cc3)c2)c1 [Example 120, 2-cyclopropyl-3-((5′-(4-methylpyridin-2-yl)-2′-(2H-tetrazol-5-yl)-[1,1′-biphenyl]-4-yl)methyl)-1,3-diazaspiro[4.4]non-1-en-4-one] | 17.8 | 18.4 | 20.7 | 75.3 | 50.1 | 34.3 | 12.5 | 44.5 | 
CCCCC1=NC2(CCOCC2)C(=O)N1Cc1ccc(-c2cc(-c3cccc(C)c3)ccc2-c2nn[nH]n2)cc1 [Example 155, 2-butyl-3-((3″-methyl-6′-(2H-tetrazol-5-yl)-[1,1′:3′,1″-terphenyl]-4-yl)methyl)-8-oxa-1,3-diazaspiro[4.5]dec-1-en-4-one] |  | > 100000 |  | > 100000 |  |  | 40.8 | 32.0 | 42.7
CCCCC1=NC2(CCOCC2)C(=O)N1Cc1ccc(-c2cc(-c3ccccc3)ccc2-c2nnn[nH]2)cc1 [Example 156] |  | > 100000 | 7.2 | 189 |  |  | 85.1 | 19.9 | 250
CCCCC1=NC2(CCOCC2)C(=O)N1Cc1ccc(-c2cc(-c3ccccc3O)ccc2-c2nnn[nH]2)cc1 [Example 157] | 16.5 | 37.6 | 11.4 | 60.1 |  |  | 30.3 | 44.7 | 61.1
CCCCC1=NC2(CCOCC2)C(=O)N1Cc1ccc(-c2cc(-c3cc(C)ccn3)ccc2-c2nn[nH]n2)cc1 [Example 171, 2-butyl-3-((5′-(4-methylpyridin-2-yl)-2′-(2H-tetrazol-5-yl)-[1,1′-biphenyl]-4-yl)methyl)-8-oxa-1,3-diazaspiro[4.5]dec-1-en-4-one] | 20.1 | 30.9 | 68.1 | 8120 |  |  | 33.5 | 38.6 | 68.4
CC1=NC2(CCOCC2)C(=O)N1Cc1ccc(-c2cc(-c3ccccc3)ccc2-c2nn[nH]n2)cc1 [Example 172, 3-((6′-(2H-tetrazol-5-yl)-[1,1′:3′,1″-terphenyl]-4-yl)methyl)-2-methyl-8-oxa-1,3-diazaspiro[4.5]dec-1-en-4-one] |  | > 10000 | 9.4 | 782 |  |  | 196 | 27.1 | > 10000
CCc1nc2c(C)cc(C)nc2n1Cc1cnc(-c2cc(-c3ccccc3)ccc2-c2nnn[nH]2)cn1 [Example 187, 3-((5-(4-(1H-tetrazol-5-yl)-[1,1′-biphenyl]-3-yl)pyrazin-2-yl)methyl)-2-ethyl-5,7-dimethyl-3H-imidazo[4,5-b]pyridine] | 8.4 | 168 | 16.1 | 104 |  |  | 44.4 | 34.0 | 181
CCc1nc2c(C)cc(C)nc2n1Cc1ncc(-c2cc(-c3cccc(C)c3)ccc2-c2nnn[nH]2)cn1 [Example 188, 2-ethyl-5,7-dimethyl-3-((5-(3′-methyl-4-(1H-tetrazol-5-yl)biphenyl-3-yl)pyrimidin-2-yl)methyl)-3H-imidazo[4,5-b]pyridine] | 17.2 | 33.1 | 24.2 | 173 |  |  | 41.7 | 53.3 | 24.6
CCc1nc2c(C)cc(C)nc2n1Cc1ncc(-c2cc(-c3ccccc3O)ccc2-c2nnn[nH]2)cn1 [Example 189] | 17.5 | 32.1 | 12.7 | 18.4 |  |  | 9.2 | 53.0 | 49.2
CCc1nc2c(C)cc(C)nc2n1Cc1ccc(-c2cc(-c3cccc(C)c3)ccc2-c2nnn[nH]2)nn1 [Example 191, 2-ethyl-5,7-dimethyl-3-((6-(3′-methyl-4-(1H-tetrazol-5-yl)biphenyl-3-yl)pyridazin-3-yl)methyl)-3H-imidazo[4,5-b]pyridine] | 24.2 | 101 | 29.9 | 118 |  |  | 20.7 | 53.0 | 76
CCc1nc2c(C)cc(C)nc2n1Cc1ccc(-c2cc(-c3ccccn3)ccc2C(=O)O)cc1 [Example 192, 4′-((2-ethyl-5,7-dimethyl-3H-imidazo[4,5-b]pyridin-3-yl)methyl)-5-(pyridin-2-yl)biphenyl-2-carboxylic acid] |  | > 100000 | 11.1 | 223 |  |  | 94.3 | 45.1 | 127
CCc1nc2c(C)cc(C)nc2n1Cc1ccc(-c2cc(-c3cc(C)ccn3)ccc2C(=O)O)cc1 [Example 193] | 29.3 | 160 | 25.0 | 132 |  |  | 52.2 | 60.7 | 133
CCc1nc2c(C)cc(C)nc2n1Cc1ccc(-c2cc(-c3cc(C)cc(C)n3)ccc2C(=O)O)cc1 [Example 194] | 16.2 | 278 | 14.5 | 214 |  |  | 63.2 | 36.6 | 295
CCc1nc2c(C)cc(C)nc2n1Cc1cnc(-c2cc(-c3cccc(C)c3)ccc2-c2nnn[nH]2)nc1 [Example 197, 2-ethyl-5,7-dimethyl-3-((2-(3′-methyl-4-(1H-tetrazol-5-yl)biphenyl-3-yl)pyrimidin-5-yl)methyl)-3H-imidazo[4,5-b]pyridine] |  | > 100000 | 5.7 | 493 |  |  | 282 | 20.2 | > 10000
CCc1nc2c(C)cc(C)nc2n1Cc1ccc(-c2cc(-n3ncc4ccccc43)ccc2-c2nnn[nH]2)cc1 [Example 215, 3-((5′-(1H-Indazol-1-yl)-2′-(1H-tetrazol-5-yl)-[1,1′-biphenyl]-4-yl)methyl)-2-ethyl-5,7-dimethyl-3H-imidazo[4,5-b]pyridine] | 22.7 | 4 | 17.3 | 17.6 |  |  | 5.1 | 46.1 | 4.1
CCc1nc2c(C)cc(C)nc2n1Cc1ccc(-c2cc(-n3cc4ccccc4n3)ccc2-c2nnn[nH]2)cc1 [Example 216, 3-((5′-(2H-Indazol-2-yl)-2′-(1H-tetrazol-5-yl)-[1,1′-biphenyl]-4-yl)methyl)-2-ethyl-5,7-dimethyl-3H-imidazo[4,5-b]pyridine] | 10.1 | 1.8 | 10.6 | 29.1 |  |  | 9.6 | 33.4 | 6.6
CCc1nc2c(C)cc(C)nc2n1Cc1ccc(-c2cc(-n3cc(C)cn3)ccc2-c2nnn[nH]2)cc1 [Example 217, 2-ethyl-5,7-dimethyl-3-((5′-(4-methyl-1H-pyrazol-1-yl)-2′-(1H-tetrazol-5-yl)-[1,1′-biphenyl]-4-yl)methyl)-3H-imidazo[4,5-b]pyridine] | 32.1 | 2.7 | 21.8 | 22.5 |  |  | 4.6 | 70.3 | 3
CCc1nc2c(C)cc(C)nc2n1Cc1ccc(-c2cc(-n3ccc(C)n3)ccc2-c2nnn[nH]2)cc1 [Example 218] |  | > 10000 | 4.6 | 33.3 |  |  | 45.9 | 21.5 | > 10000
CCc1nc2c(C)cc(C)nc2n1Cc1ccc(-c2cc(-n3cnc4ccccc43)ccc2-c2nnn[nH]2)cc1 [Example 222] |  | > 100000 | 4.9 | 187 |  |  | 56.9 | 42.7 | 98.5
CCc1cn(-c2ccc(-c3nnn[nH]3)c(-c3ccc(Cn4c(CC)nc5c(C)cc(C)nc54)cc3)c2)nn1 [Example 231] | 13.8 | 36.2 | 8.4 | 30.1 |  |  | 28.7 | 36.8 | 98.8
